Results on two compounds are retold here after patent US11007169B2, “Cis-gnetin H and trans-gnetin H as therapeutic agents” (MIDDLE TENNESSEE STATE UNIVERSITY, priority 2014, dated 2021).

For data set [1], the system named is NF-κB nuclear translocation in A549 cells. The data set can be described thus: Inhibition of TNF-α activated NF-κB translocation, Arrayscan VTI HCS Reader. Type of data set: cell-based, human. To be noted: 100 μM for 2 hrs, then 10 ng/ml TNF-α. The procedure:
A549 cells were seeded in 96 well plates (BD Falcon) at a density of 4000 cells/well, and were treated with 100 μM cis- or trans-gnetin H for 2 hrs, followed by treatment of 10 ng/ml tumor necrosis factor-alpha (TNF-α) (Sigma). Untreated cells and cells treated with only 10 ng/ml TNF-α served as controls. Cells were fixed, permeabilized, and stained with Nuclear factor kappa B (NF-κB) primary antibody, Dylight 488 conjugated secondary antibody, and Hoechst 33342 dye, sequentially. The Hoechst and DyLight fluorophores respectively detect changes in nuclear morphology (blue fluorescence) and NF-κB distribution (green fluorescence). Images were acquired at different channels using suitable filters with a 20× objective and analyzed on the Arrayscan VTI HCS Reader (Thermo Scientific). The Nuclear Translocation BioApplication software (Thermo Scientific) was used for image acquisition and analysis. For each well, at least 400 cells were automatically acquired and analyzed. The translocation index was calculated by measuring the average intensity difference of NF-κB between the identified cytoplasmic region and nuclear region (MEAN_CircRingAvgIntenDiffCh2). Experiments were performed in triplicates.

A further data set deals with BT20 cells. The data set can be described thus: Apoptosis assay by flow cytometry, BT20. It counts as cell-based, human. To be noted: 100 μM, 24 hours. Here is the method:
A549 and BT20 cells were seeded in a 96-well plate (BD Falcon) at a density of 8000 cells/well, and treated with cis- or trans-gnetin H for 24 hours. Apoptosis was assessed using Annexin V/7-AAD double staining as described (Bai et al., Cancer Sci. 2010; 101(2):488-493). Cells were analyzed on a Guava Flow Cytometer (Millipore) using InCyte software and the data was exported to FlowJo software for image display.
(In general: Flow cytometry measures light scatter and fluorescence of single cells or particles in a stream.)

Data set [2] deals with A549 lung cancer xenografts. In words: Xenograft studies, A549 lung tumors in nude mice. It counts as in vivo. To be noted: 2.4 mg/kg. The procedure: 14 male nude mice (6 weeks old) were injected subcutaneously on both flanks with 2×10^6 A549 cells. […] Tumor sizes were measured 3 times per week, and volumes were calculated using the formula [length (mm)]×[width (mm)]^2/2 (Warburton et al., Clin. Cancer Res. 2004; 10(7): 2512-2524).

Data set [3] has as its system A549 cells (human lung carcinoma). The data set can be described thus: Inhibition of cell proliferation, AlamarBlue fluorescent assay, A549. It counts as cell-based. The note with it: for inhibition at 10 µM: 48-hours treatment; for IC50: 48 hours, AlamarBlue, cancer cell line. The procedure:
(§1) The cancer cell lines used in this study included human lung carcinoma (A549), human breast carcinoma (BT20 and MCF-7) and human osteosarcoma (U2OS), with the normal cell lines human peripheral lung epithelial cells (HPL1A) and human mammary epithelial cells (HMEC) serving as controls. A549, BT20, MCF-7, U2OS and HMEC cells were purchased from American Type Culture Collection (ATCC, USA), and HPL1A cells were obtained from Nagoya University, Japan. A549 and BT20 were grown in RPMI-1640 (Sigma), MCF-7 was grown in Dulbecco's Modified Eagle Medium (DMEM) (Sigma) supplemented with 0.01 mg/ml human recombinant insulin (Sigma), U2OS and HMEC were grown in McCoy's 5A (ATCC), and HPL1A was grown in DMEM/F-12K (Sigma). The mediums were supplemented with 10% Fetal Bovine Serum (FBS) (Gibco), 1% penicillin and streptomycin and incubated in a humidified atmosphere with 5% CO2 at 37° C.
The proliferation inhibition potential of cis- and trans-gnetin H was determined by a fluorescence dye staining method. Cells were seeded in a 96-well tissue culture-treated plate (BD Falcon) at a density of 4000 cells/well, and treated with cis- or trans-gnetin H for 48 hours. AlamarBlue dye (Invitrogen) was used to assess the viability of cells according to the manufacturer's instructions; the fluorescent intensity was read on a SpectraMax M2e microplate reader (Molecular Devices Inc.).
For the determination of IC50 values, cells were treated with a serial dilution (320 μM, 100 μM, 32 μM, 10 μM, 3.2 μM, and 0.32 μM) of cis- or trans-gnetin H for 48 hours. Cell viability was determined with AlamarBlue dye (Invitrogen) and the IC50 values were calculated using non-linear regression analysis.

Data set [4] has as its system HL-60 (human leukemia) cells. To be noted: Kang et al. 2003, cited from earlier work.
Data set [5] deals with malignant cells (A549, BT20, MCF-7, U2OS). The data set can be described thus: IC50 determination, panel of malignant cell lines. Type of data set: cell-based, human. Here is the method:
as §1
The proliferation inhibition potential of cis- and trans-gnetin H was determined by a fluorescence dye staining method. Cells were seeded in a 96-well tissue culture-treated plate (BD Falcon) at a density of 4000 cells/well, and treated with cis- or trans-gnetin H for 48 hours. AlamarBlue dye (Invitrogen) was used to assess the viability of cells according to the manufacturer's instructions; the fluorescent intensity was read on a SpectraMax M2e microplate reader (Molecular Devices Inc.). […]

In data set [6] the test system is L1210 (mouse leukemia) cells. To be noted: Ha et al. 2009; cited from earlier work.

By inhibition is commonly meant the relative decrease from the control value, in per cent. Low values mean little suppression, high ones strong suppression. The IC50 is the concentration at which inhibition is half-maximal. For the compound `Oc1ccc(/C=C\c2c3c(cc4c2[C@H](c2cc(O)cc(O)c2)[C@@H](c2ccc(O)cc2)O4)O[C@H](c2ccc(O)cc2)[C@H]3c2cc(O)cc(O)c2)cc1` [cis-gnetin H], the “TNF-α-induced NF-κB nuclear translocation” value in data set [1] is “significant inhibition”. For the same compound, the “apoptosis induction in BT20” value in the data set on BT20 cells was “induce apoptosis”. Also, the “less increase in size of large tumors compared to the untreated control” value in data set [2] (large tumors) was determined as 68%. The “food intake or body weight of treated animals” value in data set [2] (nude mice) is listed as “no apparent alteration on food intake or body weight”. In data set [2] (small tumors), the “less increase in size of small tumors compared to the untreated control” value is given as 39%. In data set [3], this compound gave an inhibition at 10 µM of about 99% and an IC50 of 2.8 µM.
Regarding `Oc1ccc(/C=C/c2c3c(cc4c2[C@H](c2cc(O)cc(O)c2)[C@@H](c2ccc(O)cc2)O4)O[C@H](c2ccc(O)cc2)[C@H]3c2cc(O)cc(O)c2)cc1` [trans-gnetin H], the “TNF-α-induced NF-κB nuclear translocation” value in data set [1] was “significant inhibition”. For the same compound, in the data set on BT20 cells, the “apoptosis induction in BT20” value is listed as “induce apoptosis”. Moreover, in data set [4] (HL-60 cells, 25 μM), the “increase of the sub-G1 population” value is reported as 11%. Moreover, the IC50 was 25 µM in data set [4] (read-out: IC50, viability of HL-60 cells); 1.35 to 10 µM in data set [5] (Homo sapiens, 48 h, bone, breast and lung cancer cell lines, 48 hours, read-out: IC50 values in malignant cells (range over cell lines)); 40.1 µM in data set [6]; 2.6 µM in data set [3]. Moreover, in data set [5] (A549, BT20, MCF-7 and U2OS versus literature), the “more antiproliferation activity than previously reported” value is on record as 2-9 fold. In data set [3], this compound registered an inhibition at 10 µM of about 99%.
